Experimental data published in patent US20170152245A1 (National Taiwan University, priority 2015, published 2017).

Tests used:
washed human platelets = assay: LDH assay in washed human platelets; type: cell-based; details: 10 μM
Text: To begin with, potency of aggregation inhibition and estimated the IC50 of Ctkf6f2 on platelet aggregation caused by different agonists was investigated. […] In addition, the effect of Ctkf6f2 in platelet-rich plasma was also investigated. […] Furthermore, concentration-dependent inhibition curve in platelet suspension and platelet-rich plasma could be observed as well from FIG. 3. Moreover, LDH assay in washed human platelets with various Ctkf6f2 concentration used in the following experiments was performed.

rats = assay: Gastric damage in rats; type: in vivo; details: 40 μg g^−1 oral, 3 h
Description: Rats (Wistar) were fasted overnight then given aspirin at dose of 150 mg/kg or nstpbp5185 at 40 mg/kg. Both drugs were suspended in 1% carboxymethylcellulose. Three hours later, the rats were sacrificed, the stomach excised, and the extent of hemorrhagic erosions scored by an observer unaware of treatment the rats received. Each lesion larger than 2 mm was counted for comparison. The stomach was fixed in formalin (pH, 7.4) and photographed.

mice = assay: OVA-induced asthmatic mice (sensitization and airway challenge); type: in vivo
Description: Mice were divided into groups receiving the following treatments: (1) sham sensitization plus challenge with phosphate buffered saline (PBS) (n=5), (2) sensitization plus challenge with OVA (Sigma A5503; Sigma, St. Louis, Mo.) (n=10), and (3 and 4) sensitization with OVA (i.p.) plus challenge with and nstpbp5185 (10 or 20 mg/kg) (n=6-7). […] Mice were challenged through the airway with 100 μg OVA in 40 μL PBS buffer via intranasal administration (i.n.) days 36, 37 and 38 and AHR induced by methacholine (MCh) were measured at day 39. Animals were sacrificed 24 h after the AHR measurement. The mice were placed in the main chamber of a whole body plethysmograph (Buxco Electronics, Inc., Sharon, Conn., USA) and challenged with aerosolized 0.9% normal saline accompanied by increasing doses of methacholine (6.25-50 mg/ml). Each nebulization lasted for 3 min, and after each nebulization, recordings were taken and averaged for the 3 min. The Penh values were determined, and the data were expressed as Penh values.
Serum were collected and stored at −70° C. after centrifugation (3000 rpm, 10 min). The amount of OVA-specific IgE was determined by ELISA. Briefly, 96-well plates were coated with OVA at 10 μg/well. After the plates were blocked, 100 μl/well of diluted sera was added, and the plates were incubated at room temperature for 2 h or at 4° C. overnight. After incubation, the plates were washed five times with PBS with Tween 20 buffer, the secondary antibody (biotinylated rat anti-mouse IgE; AbD Serotec, Kidlington, UK) was added and plates were incubated for 1 h at room temperature. […] The avidin-horseradish peroxidase was removed by washing with PBS with Tween 20 buffer, and the bound enzyme substrate was detected by adding tetramethylbenzidine reagent (KPL, Gaithersburg, Md., USA). […] Optical density was measured at 450 nm (550 nm was used as a reference filter) in a microplate autoreader (Anthos Reader 2010; Anthos Labtec Instruments GmbH, Salzburg, Austria).

SMILES | cytotoxicity to platelets (LDH assay) (washed human platelets) | gastric lesions (>2 mm) (rats) | cellular infiltration of the airways (mice; 10 and 20 mg/kg/day) | OVA-specific IgE, IgG2a and IgG1 levels in serum (mice; 10 or 20 mg/kg) | asthma symptoms after OVA challenge (mice; Group 3 and Group 4 (10 or 20 mg/kg))
Cc1ccc(-c2nc3ccc(F)cc3n2Cc2cccc(F)c2)o1 [Ctkf6f2, 6-fluoro-1-(3-fluorobenzyl)-2-(5-methyl-2-furyl)benzimidazole] | little cytotoxicity |  |  |  | 
Cc1ccc(-c2nc3ccccc3n2Cc2ccccc2)o1 [Example 6, 1-Benzyl-2-(5-methyl-2-furyl)benzimidazole] |  | did not cause significant lesion | reduced | significant reduction | alleviated symptoms
